Columns and labels:
[1] = SD rat skin penetration test: DCA distribution in subcutaneous tissue, skin and plasma; parameters: species or system SD rats; settings: in vivo, sc
Excerpt: The interscapular region (back of the neck near the ear) of 10-week-old SD rats (280-350 g) with sufficient subcutaneous adipose tissue was shaved and anesthetized.

[2] = cited from earlier work
3T3-L1 preadipocytes = assay: Preadipocyte cytotoxicity (cell counting kit-8); format: cell-based; settings: treated 4 hours
Procedure: 3T3-L1 preadipocytes were inoculated into a 96 well plate at 5×10^3 per well, grown in medium (high glucose DMEM, 10% bovine calf serum, 1% penicillin/streptomycin) for 16 hours. The drug was prepared to contain 0.04% and 0.08%, respectively, and then treated for 4 hours. After adding 10 μl of Dojingo CK04-11 cell counting kit-8 to each well according to the manual, reacting for 2 hours, the absorbance at 450 nm was measured with a spectrophotometer to compare preadipocyte cytotoxicity.

[3] = system: dermis white adipose tissue; assay: SD rat skin penetration test: histological analysis (H&E, Masson's trichome staining); format: in vivo, SD rats; settings: 1%, 500 μL subcutaneous injection
Excerpt: The interscapular region (back of the neck near the ear) of 10-week-old SD rats (280-350 g) with sufficient subcutaneous adipose tissue was shaved and anesthetized. […].
Then, tissues (skin, subcutaneous tissue) of the interscapular region were collected, fixed, and subjected to H&E staining and Masson's trichome staining. Tissue changes were investigated through microscopic observation.

In the case of `C[C@H](CCC(=O)O)[C@H]1CC[C@H]2[C@@H]3CC[C@@H]4C[C@H](O)CC[C@]4(C)[C@H]3C[C@H](O)[C@]12C` [deoxycholic acid], the “amount of DCA in subcutaneous tissue” value [1] is listed as “gradually decreased”, the solubility in water [2] is listed as 0.024% and the “preadipocyte cytotoxicity (comparison between materials)” value (3T3-L1 preadipocytes; 0.04%) is listed as “the same”. For the same compound, the “survival rate of preadipocytes” value (3T3-L1 preadipocytes; 0.08%, absorbance 450 nm) was 24.6%, the “H&E staining: tissue change” value [3] was “severe tissue damage was observed” and the “Masson's trichome staining: tissue change” value [3] was “hematoma and edema occurred in the tissue”.

Reference: US20240325433A1, “MOLECULAR ASSOCIATION OF BILE ACID OR BILE SALT AND PHARMACEUTICAL COMPOSITION COMPRISING SAME FOR LOCALLY REDUCING FAT” (SCAI THERAPEUTICS CO., LTD., priority 2021, published 2024)
